Assay results as given in patent US8815592B2, “Methods and compositions related to dopaminergic neuronal cells” (Research Development Foundation, priority 2010, dated 2014).
Counter-ions that a name gives are not always drawn.

What was measured:
[1] = target: T1, dopaminergic transporter DAT (Mus musculus, UniProt Q61327); assay: [3H] Win 35,428 binding on DAT receptor of ES-derived dopaminergic neurons, with and without GBR 12909; settings: cells incubated with 10 μm GBR 12909 hydrochloride; 5 nM ligand; 6 well plates
T1 construct: After 16 days of differentiations, cells were incubated with [^3H]; Win35, 428 for 1 hour; endogenous in cells; host or cells: dopaminergic neurons differentiated from mouse embryonic stem cells (CGR8 line)
T1 sequence (Q61327 whole entry): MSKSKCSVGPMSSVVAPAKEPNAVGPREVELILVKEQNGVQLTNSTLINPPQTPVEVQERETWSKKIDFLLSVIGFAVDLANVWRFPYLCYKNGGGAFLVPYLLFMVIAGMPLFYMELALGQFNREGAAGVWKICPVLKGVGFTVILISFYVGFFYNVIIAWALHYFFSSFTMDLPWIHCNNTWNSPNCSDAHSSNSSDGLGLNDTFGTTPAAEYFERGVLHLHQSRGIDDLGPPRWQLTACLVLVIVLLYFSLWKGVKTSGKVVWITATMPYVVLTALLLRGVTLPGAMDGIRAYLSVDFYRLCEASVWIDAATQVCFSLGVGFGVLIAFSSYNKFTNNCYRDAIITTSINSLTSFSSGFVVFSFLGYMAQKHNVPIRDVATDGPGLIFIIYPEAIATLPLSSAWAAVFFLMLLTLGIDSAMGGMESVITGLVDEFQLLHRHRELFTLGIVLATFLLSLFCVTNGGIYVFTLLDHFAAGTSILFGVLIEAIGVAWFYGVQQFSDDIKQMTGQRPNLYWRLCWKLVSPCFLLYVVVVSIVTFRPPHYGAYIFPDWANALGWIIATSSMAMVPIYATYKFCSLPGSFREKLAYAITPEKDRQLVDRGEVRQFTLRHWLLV
Procedure: Cells were incubated on binding buffer containing 5 nM of the ligand at different time (30 to 60 minutes), with and without 10 μm of GBR 12909 hydrochloride. […] Radioactivity measured by liquid scintillation counter (WALLAC).
Win 35,428 binding to DAT receptor and DA-neurons in 96-well plate, cells were plated at the density of 60 cells/well.
After 16 days of differentiations, cells were incubated with [^3H] Win35, 428 for 1 hour and then washed by binding buffer for 1 minute, following by direct counting using liquid scintillation counter (WALLAC).
In detail, the binding assay was performed at 4° C. in phosphate-buffered saline (PBS) (Invitrogen/Gibco) containing 0.32 M sucrose with Ca^2+ and Mg^2+. Cells in each well were washed one time with 0.5 ml of phosphatebuffered. Then incubated at various time (30 to 60 min) with various amounts (5 to 10 nM) of [^3H] Win 35,428. The non specific binding was determined in the presence or not of 10 μM of GBR-12909 hydrochloride. The incubation was stopped by rinsing the cells three times with ice-cold buffer to eliminate non-linked [^3H] Win 35,428 and removal of cells. Cells were detached by a rake and transferred into a 96 well plate. Radioactivity was measured by a liquid scintillation counter (WALLAC).

[2] = test system: Engineered neural tissues (ENTs); assay: Neurotoxicology testing platform, electrical activity of engineered neural tissues; format: cell-based, mouse; settings: ENTs (FIG. 13)
Procedure: Engineered neural tissues (ENTs) (a similar scheme could be applied to dopaminergic neurons provided according to certain aspects of the present invention) can be used for establishment of a neurotoxicology testing platform (FIG. 12). […] Mouse ENTs differentiated for 21 days were exposed to putative neurotoxic for 24 hours and spontaneous electrical activity was measured for the neurotoxicity testing (FIG. 14). Electrophysiological characterizations of ENTs include characterization of spontaneous activity such as spike frequency, spike amplitude, burst frequency (number of bursts per second), or number of spikes per burst, or characterization of evoked filed potentials such as amplitude of responses, paired-pulse inhibition, or input/output curve. The electrophysiological characterization of ENTs can be carried out by a multi-electrode array (FIG. 16).

| Structure (SMILES) | non-specific binding as share of the total binding of [3H] Win 35,428 [1] | epileptogenic activity [2] |
| --- | --- | --- |
| Fc1ccc(C(OCCN2CCN(CCCc3ccccc3)CC2)c2ccc(F)cc2)cc1 [GBR 12909 hydrochloride] | 50% | – |
| COc1cc2c(c(OC)c1OC)-c1ccc(OC)c(=O)cc1[C@@H](NC(C)=O)CC2 [colchicine] | – | demonstrated |
